Here are results for two compounds from PMC3491871 (The Journal of biological chemistry, 2004).

SMILES strings stand for the structures.

Assay [1] concerns the target T1, trypanothione reductase (Trypanosoma cruzi, UniProt P28593). Put plainly: crystal structure of the covalent adduct at […] Å. The following applies: read-out: Ki. The assay is classed as biochemical.
For assay [2], the target named is T1, trypanothione reductase. The assay can be described thus: protection of oxidised enzyme from QM inactivation. The assay is classed as biochemical.

T1 sequence (P28593 whole entry): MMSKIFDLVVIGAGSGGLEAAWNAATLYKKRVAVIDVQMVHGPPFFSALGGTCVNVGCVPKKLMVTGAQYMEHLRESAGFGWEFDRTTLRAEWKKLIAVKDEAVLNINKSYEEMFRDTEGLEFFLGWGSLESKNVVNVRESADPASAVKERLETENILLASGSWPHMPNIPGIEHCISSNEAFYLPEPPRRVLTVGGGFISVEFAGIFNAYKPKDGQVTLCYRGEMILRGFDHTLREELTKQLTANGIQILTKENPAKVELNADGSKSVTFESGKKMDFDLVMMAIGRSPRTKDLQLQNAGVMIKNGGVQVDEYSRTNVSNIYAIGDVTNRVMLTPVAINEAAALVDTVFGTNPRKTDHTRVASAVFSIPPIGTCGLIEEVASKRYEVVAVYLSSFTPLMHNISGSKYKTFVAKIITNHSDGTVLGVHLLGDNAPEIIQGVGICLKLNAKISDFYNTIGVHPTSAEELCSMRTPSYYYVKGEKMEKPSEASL

Regarding `COc1ccc2nc3cc(Cl)ccc3c(NC(C)CCCN(CCCl)CCCl)c2c1` (racemic) [QM, quinacrine mustard], the KI (inactivation) in assay [1] stood at 41 ± 8 µM. With `CCN(CC)CCCC(C)Nc1c2ccc(Cl)cc2nc2ccc(OC)cc12` (centres unmarked) [quinacrine], in assay [2], the Ki came to 208 ± 45 µM.
